Assay results published in patent publication US11254686B1 (Corvus Pharmaceuticals, Inc., priority 2017, dated 2022).

Columns and labels:
[1] = biological target: adenosine A2B receptor (Homo sapiens (Human), UniProt P29275); assay: Adenosine receptor activity assay (Table 1), A2B activity; format: biochemical; details: for IC50: read-out: Ave A2B cAMP IC50
[2] = biological target: adenosine A2A receptor (Homo sapiens (Human), UniProt P29274); assay: Adenosine receptor activity assay (Table 1), A2A activity; format: biochemical; details: read-out: Ave A2A cAMP IC50
[3] = biological target: T1, adenosine A1 receptor (Homo sapiens (Human), UniProt P30542); assay: A1 cAMP IC50 assay (Table 1); format: biochemical
[4] = biological target: T2, adenosine A3 receptor (Homo sapiens (Human), UniProt P0DMS8); assay: A3 cAMP IC50 assay (Table 1); format: biochemical
[5] = biological target: CYP3A4 (Homo sapiens (Human), UniProt P08684); assay: CYP450 inhibition at 10 μM, CYP3A4; format: in vitro ADME; details: human, 10 μM, read-out: CYP 450 % INH @ 10 μM
[6] = biological target: CYP2D6 (Homo sapiens (Human), UniProt P10635); assay: CYP450 inhibition at 10 μM, CYP2D6; format: in vitro ADME; details: read-out: CYP 450 % INH @ 10 μM
[7] = Liver microsome (LM) intrinsic clearance, rat; format: in vitro ADME
[8] = Liver microsome (LM) intrinsic clearance, human; format: in vitro ADME
[9] = Hepatocyte (Hep) intrinsic clearance, rat; format: in vitro ADME; details: hepatocytes
[10] = Hepatocyte (Hep) intrinsic clearance, dog; format: in vitro ADME; details: hepatocytes
[11] = Hepatocyte (Hep) intrinsic clearance, monkey; format: in vitro ADME; details: hepatocytes
[12] = Hepatocyte (Hep) intrinsic clearance, human; format: in vitro ADME; details: hepatocytes
[13] = biological target: T1, adenosine A1 receptor; assay: Adenosine receptor activity assay (Table 1), A1 cAMP; format: cell-based
[14] = biological target: T2, adenosine A3 receptor; assay: Adenosine receptor activity assay (Table 1), A3 cAMP; format: cell-based
[15] = Liver microsome intrinsic clearance, rat; format: in vitro ADME
[16] = Liver microsome intrinsic clearance, human; format: in vitro ADME
[17] = biological target: T1, adenosine A1 receptor; assay: Adenosine receptor activity assay (Table 1), A1 cAMP; format: biochemical
Description: (§1) Table 1. Compounds (e.g., Adenosine Receptor modulators) and activity assay results. The legend is as follows: A=<10 nM; B=10-50 nM; C=50-100 nM; D=100-500; and E=>500 nM. The ratio corresponds to the A2A activity to the A2B activity; or A2A/A2B.

[18] = biological target: T2, adenosine A3 receptor; assay: Adenosine receptor activity assay (Table 1), A3 cAMP; format: biochemical
Description: as §1

[19] = Liver microsome intrinsic clearance (LM CLint), rat; format: in vitro ADME
[20] = Liver microsome intrinsic clearance (LM CLint), human; format: in vitro ADME
[21] = A2A activity to A2B activity (A2A/A2B)
[22] = A2A activity to the A2B activity, A2A/A2B

CYP2D6, sequence (P10635 whole entry): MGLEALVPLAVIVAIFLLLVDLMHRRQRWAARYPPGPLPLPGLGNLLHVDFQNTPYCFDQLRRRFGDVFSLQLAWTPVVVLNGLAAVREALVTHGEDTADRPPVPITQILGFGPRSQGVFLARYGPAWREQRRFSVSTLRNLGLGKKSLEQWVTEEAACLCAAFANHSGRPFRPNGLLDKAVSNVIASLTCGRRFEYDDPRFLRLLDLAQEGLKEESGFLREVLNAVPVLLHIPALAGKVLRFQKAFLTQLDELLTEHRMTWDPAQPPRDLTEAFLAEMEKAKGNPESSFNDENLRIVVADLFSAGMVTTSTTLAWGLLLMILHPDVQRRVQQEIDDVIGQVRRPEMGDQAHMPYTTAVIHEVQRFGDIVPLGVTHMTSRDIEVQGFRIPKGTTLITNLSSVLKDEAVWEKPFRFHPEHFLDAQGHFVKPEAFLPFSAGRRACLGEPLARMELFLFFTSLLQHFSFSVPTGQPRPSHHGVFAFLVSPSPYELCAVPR
adenosine A2B receptor, sequence (P29275 whole entry): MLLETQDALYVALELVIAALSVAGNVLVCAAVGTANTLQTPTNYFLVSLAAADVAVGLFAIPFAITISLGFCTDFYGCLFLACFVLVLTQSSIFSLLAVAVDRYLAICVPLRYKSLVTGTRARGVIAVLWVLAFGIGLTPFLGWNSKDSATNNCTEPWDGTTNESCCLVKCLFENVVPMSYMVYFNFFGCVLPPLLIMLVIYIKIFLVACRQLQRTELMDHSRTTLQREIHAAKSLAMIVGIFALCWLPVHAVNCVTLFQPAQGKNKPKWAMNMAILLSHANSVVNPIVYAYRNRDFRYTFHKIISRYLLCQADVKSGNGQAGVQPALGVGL
T1 sequence (P30542 whole entry): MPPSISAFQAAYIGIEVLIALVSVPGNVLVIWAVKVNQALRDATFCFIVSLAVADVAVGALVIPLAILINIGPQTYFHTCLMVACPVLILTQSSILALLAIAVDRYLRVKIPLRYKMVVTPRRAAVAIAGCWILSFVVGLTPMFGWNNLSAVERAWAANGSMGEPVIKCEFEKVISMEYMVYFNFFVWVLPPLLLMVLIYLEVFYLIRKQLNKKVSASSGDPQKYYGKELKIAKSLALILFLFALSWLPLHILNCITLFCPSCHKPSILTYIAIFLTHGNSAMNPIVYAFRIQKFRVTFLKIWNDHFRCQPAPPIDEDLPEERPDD
T2 sequence (P0DMS8 whole entry): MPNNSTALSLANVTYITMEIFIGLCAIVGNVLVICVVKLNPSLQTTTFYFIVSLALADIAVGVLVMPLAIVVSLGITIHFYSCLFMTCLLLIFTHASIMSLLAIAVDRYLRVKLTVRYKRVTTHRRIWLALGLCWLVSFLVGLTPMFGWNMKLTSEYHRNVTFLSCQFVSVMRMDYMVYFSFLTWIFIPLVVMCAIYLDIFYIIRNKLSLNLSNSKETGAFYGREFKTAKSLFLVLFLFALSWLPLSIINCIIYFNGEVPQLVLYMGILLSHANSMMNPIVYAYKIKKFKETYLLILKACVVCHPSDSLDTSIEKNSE
adenosine A2A receptor, sequence (P29274 whole entry): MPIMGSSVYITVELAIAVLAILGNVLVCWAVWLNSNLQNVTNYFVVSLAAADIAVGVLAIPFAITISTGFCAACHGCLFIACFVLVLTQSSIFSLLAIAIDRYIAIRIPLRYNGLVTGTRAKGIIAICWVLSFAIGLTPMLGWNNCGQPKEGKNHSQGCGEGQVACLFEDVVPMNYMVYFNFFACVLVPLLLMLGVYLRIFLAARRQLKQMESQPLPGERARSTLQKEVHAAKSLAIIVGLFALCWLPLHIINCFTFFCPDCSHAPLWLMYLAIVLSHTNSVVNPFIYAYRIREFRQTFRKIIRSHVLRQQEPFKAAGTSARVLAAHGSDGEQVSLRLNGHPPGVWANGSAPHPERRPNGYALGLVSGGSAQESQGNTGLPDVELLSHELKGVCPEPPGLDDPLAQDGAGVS
CYP3A4, sequence (P08684 whole entry): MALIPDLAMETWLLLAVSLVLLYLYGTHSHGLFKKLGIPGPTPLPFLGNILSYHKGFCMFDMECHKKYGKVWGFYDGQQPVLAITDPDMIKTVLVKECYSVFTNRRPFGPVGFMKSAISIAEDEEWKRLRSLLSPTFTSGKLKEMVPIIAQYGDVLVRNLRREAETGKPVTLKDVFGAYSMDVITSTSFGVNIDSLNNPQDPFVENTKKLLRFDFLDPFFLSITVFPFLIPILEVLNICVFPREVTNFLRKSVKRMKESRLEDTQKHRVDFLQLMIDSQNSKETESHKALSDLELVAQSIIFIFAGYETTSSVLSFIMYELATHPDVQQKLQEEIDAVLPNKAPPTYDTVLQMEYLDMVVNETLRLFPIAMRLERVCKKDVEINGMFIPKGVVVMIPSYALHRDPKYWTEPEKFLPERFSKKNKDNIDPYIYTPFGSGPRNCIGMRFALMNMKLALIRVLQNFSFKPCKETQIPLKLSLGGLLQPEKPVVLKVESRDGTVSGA

SMILES	Ratio [1, 21]	IC50 [1] [nM]	IC50 [2] [nM]	IC50 [13] [nM]	IC50 [14] [nM]	LM CLint [15] [μL/min/mg/protein]	LM CLint [16] [μL/min/mg/protein]	Ratio [1, 22]	IC50 [17] [nM]	IC50 [18] [nM]	LM CLint [19] [μL/min/mg/protein]	LM CLint [20] [μL/min/mg/protein]	also measured
C[C@H](Nc1nc(C(=O)N2CC[C@H](O)C2)c2sccc2n1)c1cccnc1 [Example Z28, ((S)-3-Hydroxypyrrolidin-1-yl)(2-(((S)-1-(pyridin-3-yl)ethyl)amino)thieno[3,2-d]pyrimidin-4-yl)methanone]	39.41	50 to 100	> 500	–	–	–	–	–	–	–	–	–	IC50 [3]: > 500 nM; IC50 [4]: > 500 nM; inhibition at 10 µM [5]: 35%; inhibition at 10 µM [6]: 11%; LM CLint [7]: 9.33 μL/min/mg/protein; LM CLint [8]: 4.55 μL/min/mg/protein; hepatocyte CLint [9]: 34.7 µL/min/1e6 cells; hepatocyte CLint [10]: 2.59 µL/min/1e6 cells; hepatocyte CLint [11]: 0.62 µL/min/1e6 cells; hepatocyte CLint [12]: 3.48 µL/min/1e6 cells
C[C@H](Nc1nc(C(=O)N2CC[C@@H](O)C2)c2sccc2n1)c1ccccn1 [Example Z59, ((R)-3-Hydroxypyrrolidin-1-yl)(2-(((S)-1-(pyridin-2-yl)ethyl)amino)thieno[3,2-d]pyrimidin-4-yl)methanone]	12.76	10 to 50	100 to 500	–	–	–	–	–	–	–	–	–	IC50 [3]: > 500 nM; IC50 [4]: > 500 nM; inhibition at 10 µM [5]: 0%; inhibition at 10 µM [6]: 15%; LM CLint [7]: 4.86 μL/min/mg/protein; LM CLint [8]: 4.87 μL/min/mg/protein; hepatocyte CLint [9]: 8.7 µL/min/1e6 cells; hepatocyte CLint [10]: 4.19 µL/min/1e6 cells; hepatocyte CLint [12]: 1.5 µL/min/1e6 cells
C[C@H](Nc1nc(C(=O)N2CC[C@@H](O)C2)c2sc(C(F)(F)F)cc2n1)c1cccnc1 [Example Z337, ((R)-3-Hydroxypyrrolidin-1-yl)(2-(((S)-1-(pyridin-3-yl)ethyl)amino)-6-(trifluoromethyl)thieno[3,2-d]pyrimidin-4-yl)methanone]	120.82	10 to 50	> 500	> 500	> 500	13.69	20.68	–	–	–	–	–	–
Cc1cc2nc(N[C@@H](C)c3cncc(F)c3)nc(C(=O)N3CC(N)C3)c2s1 [Example Z430, (S)-(3-Aminoazetidin-1-yl)(2-((1-(5-fluoropyridin-3-yl)ethyl)amino)-6-methylthieno[3,2-d]pyrimidin-4-yl)methanone]	–	< 10	> 500	–	–	–	–	177.08	> 500	> 500	4.83	5.77	–
COc1cccc(CNC(=O)c2nc(N[C@@H](C)c3ccccn3)nc3c(C)csc23)n1 [Example Z450, (S)—N-((6-Methoxypyridin-2-yl)methyl)-7-methyl-2-((1-(pyridin-2-yl)ethyl)amino)thieno[3,2-d]pyrimidine-4-carboxamide]	–	10 to 50	10 to 50	–	–	–	–	0.64	> 500	50 to 100	314.14	82.93	–
Cc1cc2nc(N[C@@H](C)c3cncc(F)c3)nc(C(=O)NCC[C@H]3CCNC3)c2s1 [Example Z463, 2-(((S)-1-(5-Fluoropyridin-3-yl)ethyl)amino)-6-methyl-N-(2-((R)-pyrrolidin-3-yl)ethyl)thieno[3,2-d]pyrimidine-4-carboxamide]	–	10 to 50	> 500	–	–	–	–	159.87	> 500	> 500	48.47	4.85	–
COc1ccc([C@@H](C)Nc2nc(C(=O)NCc3ccc(OC)nc3)c3sccc3n2)cc1 [Example Z465, (R)-2-((1-(4-Methoxyphenyl)ethyl)amino)-N-((6-methoxypyridin-3-yl)methyl)thieno[3,2-d]pyrimidine-4-carboxamide]	–	> 500	10 to 50	–	–	–	–	0.22	> 500	> 500	75.91	35.20	–
C[C@H](Nc1nc(C(=O)N2CC(NC(=O)C3CC3)C2)c2sccc2n1)c1cncc(F)c1 [Example Z517, (S)—N-(1-(2-((1-(5-Fluoropyridin-3-yl)ethyl)amino)thieno[3,2-d]pyrimidine-4-carbonyl)azetidin-3-yl)cyclopropanecarboxamide]	–	< 10	10 to 50	–	–	–	–	4.68	> 500	> 500	16.99	6.17	–

Further lines, with some results ahead:

Ratio [1, 21]	IC50 [1] [nM]	IC50 [2] [nM]	IC50 [13] [nM]	IC50 [14] [nM]	LM CLint [15] [μL/min/mg/protein]	LM CLint [16] [μL/min/mg/protein]	Ratio [1, 22]	IC50 [17] [nM]	IC50 [18] [nM]	LM CLint [19] [μL/min/mg/protein]	LM CLint [20] [μL/min/mg/protein]	SMILES	also measured
7.99	< 10	50 to 100	–	–	–	–	–	–	–	–	–	C[C@H](Nc1nc(C(=O)N2CCCC2)c2sccc2n1)c1ccccn1 [Example Z10, (S)-(2-((1-(Pyridin-2-yl)ethyl)amino)thieno[3,2-d]pyrimidin-4-yl)(pyrrolidin-1-yl)methanone]	IC50 [3]: > 500 nM; IC50 [4]: > 500 nM; inhibition at 10 µM [5]: 0%; inhibition at 10 µM [6]: 8%; LM CLint [7]: 15.05 μL/min/mg/protein; LM CLint [8]: 16.29 μL/min/mg/protein; hepatocyte CLint [9]: 26.7 µL/min/1e6 cells; hepatocyte CLint [10]: 46.1 µL/min/1e6 cells; hepatocyte CLint [11]: 17.9 µL/min/1e6 cells; hepatocyte CLint [12]: 6.53 µL/min/1e6 cells
5.74	< 10	10 to 50	–	–	–	–	–	–	–	–	–	C[C@H](Nc1nc(C(=O)N2CC[C@@H](F)C2)c2sccc2n1)c1ccccn1 [Example Z52, ((R)-3-Fluoropyrrolidin-1-yl)(2-(((S)-1-(pyridin-2-yl)ethyl)amino)thieno[3,2-d]pyrimidin-4-yl)methanone]	IC50 [3]: > 500 nM; IC50 [4]: > 500 nM; inhibition at 10 µM [5]: 7%; inhibition at 10 µM [6]: 0%; LM CLint [7]: 11.87 μL/min/mg/protein; LM CLint [8]: 11.20 μL/min/mg/protein; hepatocyte CLint [9]: 45.3 µL/min/1e6 cells; hepatocyte CLint [10]: 41.7 µL/min/1e6 cells; hepatocyte CLint [11]: 18.7 µL/min/1e6 cells; hepatocyte CLint [12]: 12.7 µL/min/1e6 cells
3.05	< 10	10 to 50	> 500	50 to 100	57.04	10.94	–	–	–	–	–	CO[C@@H]1CCN(C(=O)c2nc(N[C@@H](C)c3ccccn3)nc3cc(C)sc23)C1 [Example Z312, ((R)-3-Methoxypyrrolidin-1-yl)(6-methyl-2-(((S)-1-(pyridin-2-yl)ethyl)amino)thieno[3,2-d]pyrimidin-4-yl)methanone]	–
200.00	< 10	> 500	> 500	> 500	33.31	10.36	–	–	–	–	–	Cc1cc2nc(N[C@@H](C)c3cccnc3)nc(C(=O)N3CC[C@@H](CO)C3)c2s1 [Example Z335, ((R)-3-(Hydroxymethyl)pyrrolidin-1-yl)(6-methyl-2-(((S)-1-(pyridin-3-yl)ethyl)amino)thieno[3,2-d]pyrimidin-4-yl)methanone]	–
95.47	< 10	100 to 500	> 500	> 500	504.21	258.52	–	–	–	–	–	C[C@H](Nc1nc(C(=O)NCCc2ccc(O)cc2)c2sccc2n1)c1cncc(F)c1 [Example Z340, (S)-2-((1-(5-Fluoropyridin-3-yl)ethyl)amino)-N-(4-hydroxyphenethyl)thieno[3,2-d]pyrimidine-4-carboxamide]	–
288.73	< 10	> 500	> 500	> 500	7.73	12.73	–	–	–	–	–	C[C@H](Nc1nc(C(=O)N2CC[C@@H](O)C2)c2sc(C(F)(F)F)cc2n1)c1cncc(F)c1 [Example Z391, (2-(((S)-1-(5-Fluoropyridin-3-yl)ethyl)amino)-6-(trifluoromethyl)thieno[3,2-d]pyrimidin-4-yl)((R)-3-hydroxypyrrolidin-1-yl)methanone]	–
